Legend:
[1] = Effect of olive kernel extract on absorption of tritiated chondroitin sulfate in vivo (serum radioactivity after oral capsule); design: species or system male Sprague-Dawley rats; conditions: serum radioactivity at 8 hours
Procedure: Chondroitin sulfate was tritiated by New England Nuclear Corp. to a specific activity of 4.3 mCi/ml.
Unlabeled chondroitin sulfate was dissolved in olive kernel extract at a ratio of about 55 w/v chondroitin sulfate powder to about 450 w/v of olive kernel extract (2.9% acidity as oleic acid, 1.03% water, 0.08% hexane). To this solution was added 20.2 microcuries of the labeled chondroitin sulfate. AAA gelatin capsules were filled with the resulting solution using an aluminum template molding device.
The laboratory animals (250 g male Sprague-Dawley rats) were kept overnight without food but with free access to water. One capsule containg the above-described chondroitin sulfate-olive kernel extract solution was given to each rat per os. Control animals were given the equivalent amount of chondroitin, but without olive kernel extract. The animals were then given free access to food. Serum radioactivity was measured 8 hours thereafter in a beta scintillation counter.

[2] = Chondroitin sulfate solubility in oils; format: physicochemical; conditions: in codfish oil, corn oil and olive oil (from the flesh of the olive)
Excerpt: Parallel experiments with codfish oil, corn oil and olive oil (from the flesh of the olive) were comtemplated, but chondroitin sulfate solubility in these oils was insufficient to meet the requirements of the experiment.

[3] = commercially available preparations, oral; cited from earlier work

## chondroitin sulfate
[1]; control rats, one capsule per os without olive kernel extract, n=3
  dose of labeled chondroitin sulfate that reached the circulation: about 3.9%+/−0.4%
[1]; rats, one capsule per os of chondroitin sulfate dissolved in olive kernel extract, n=4
  dose of labeled chondroitin sulfate absorbed into the general circulation: about 14.3%+/−0.7%
[2]
  chondroitin sulfate solubility in oils: insufficient
[3]
  chondroitin sulfate absorbed orally: less than 5%
